Results reported in ChEMBL document CHEMBL2396537, “Orally active opioid compounds from a non-poppy source” (J Med Chem, 2013).
Active and inactive are the calls of the source. The rule behind the calls is not given here.

How the values were obtained:
[1] = molecular target: Mu-type opioid receptor (Homo sapiens, UniProt P35372); assay: Binding affinity to mu opioid receptor (unknown origin)
[2] = molecular target: Kappa-type opioid receptor (Homo sapiens, UniProt P41145); assay: Binding affinity to kappa opioid receptor (unknown origin)
[3] = species on record: Cavia porcellus; assay: Agonist activity at opioid receptor in guinea pig ileum assessed as inhibition of electrically-induced twitch at 100 pM to 30 uM relative to morphine; type: tissue-based
[4] = Binding affinity to delta opioid receptor (unknown origin)
[5] = tested on: Rattus norvegicus; assay: Inhibition of gastrointestinal transit of charcoal meal in rat at 55.2 mg/kg, po; type: organism-based; set-up: dose 55.2 mg/kg, route oral; conditions: in vivo
[6] = Displacement of [3H]DPDPE from delta opoid receptor in Dunkin-Hartley guinea pig brain after 2 hrs by liquid scintillation spectrometry; set-up: species or system Cavia porcellus
[7] = Displacement of [3H]DPDPE from guinea pig brain delta opoid receptor after 4 hrs by liquid scintillation counting analysis; set-up: species or system Cavia porcellus
[8] = molecular target: T1, Mu-type opioid receptor (Cavia porcellus, UniProt P97266); assay: Displacement of [3H]DAMGO from guinea pig brain mu opoid receptor after 3 hrs by liquid scintillation counting analysis
[9] = molecular target: T1, Mu-type opioid receptor; assay: Displacement of [3H]DAMGO from mu opoid receptor in Dunkin-Hartley guinea pig brain after 1.5 hrs by liquid scintillation spectrometry
[10] = tested on: Mus musculus; assay: Antinociceptive activity in ddY mouse assessed as tolerance level at 10 mg/kg, sc bid measured on day 5 by tail-flick test; type: functional
[11] = molecular target: T2, Kappa-type opioid receptor (Cavia porcellus, UniProt P41144); assay: Displacement of [3H]U-69,593 from guinea pig brain kappa opoid receptor after 1 hr by liquid scintillation counting analysis
[12] = species on record: Cavia porcellus; assay: Selectivity ratio of Ki for mu opioid receptor in Dunkin-Hartley guinea pig brain over Ki for delta opioid receptor in Dunkin-Hartley guinea pig brain
[13] = molecular target: T2, Kappa-type opioid receptor; assay: Displacement of [3H]U-69593 from kappa opoid receptor in Dunkin-Hartley guinea pig brain after 1 hr by liquid scintillation spectrometry
[14] = tested on: Mus musculus; assay: Antinociceptive activity in mouse at 92 mg/kg, po by hot plate test; type: functional

Chain of Kappa-type opioid receptor (Homo sapiens, UniProt P41145) (P41145 whole entry): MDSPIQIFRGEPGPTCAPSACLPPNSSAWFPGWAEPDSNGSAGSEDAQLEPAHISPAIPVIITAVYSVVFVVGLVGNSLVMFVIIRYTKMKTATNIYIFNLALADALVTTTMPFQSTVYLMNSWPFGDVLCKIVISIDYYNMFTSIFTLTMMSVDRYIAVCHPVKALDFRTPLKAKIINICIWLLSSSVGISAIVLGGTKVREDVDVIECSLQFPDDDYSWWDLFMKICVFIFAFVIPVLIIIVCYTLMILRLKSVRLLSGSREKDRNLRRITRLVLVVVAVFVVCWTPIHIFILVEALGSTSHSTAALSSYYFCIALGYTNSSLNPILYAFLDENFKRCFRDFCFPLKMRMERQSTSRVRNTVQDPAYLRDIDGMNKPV
Chain of Mu-type opioid receptor (Homo sapiens, UniProt P35372) (P35372 whole entry): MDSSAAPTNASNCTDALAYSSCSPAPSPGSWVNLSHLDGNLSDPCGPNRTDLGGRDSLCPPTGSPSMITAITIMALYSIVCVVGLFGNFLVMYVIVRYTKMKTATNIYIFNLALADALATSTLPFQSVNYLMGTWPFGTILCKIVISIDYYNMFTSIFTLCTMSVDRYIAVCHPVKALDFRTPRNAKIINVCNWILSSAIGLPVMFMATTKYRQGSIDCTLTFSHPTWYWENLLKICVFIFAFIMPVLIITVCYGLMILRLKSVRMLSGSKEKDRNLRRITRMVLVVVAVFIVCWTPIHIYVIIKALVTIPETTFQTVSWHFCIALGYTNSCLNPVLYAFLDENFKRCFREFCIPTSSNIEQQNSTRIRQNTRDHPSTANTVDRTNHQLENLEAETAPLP
T2 sequence (P41144 whole entry): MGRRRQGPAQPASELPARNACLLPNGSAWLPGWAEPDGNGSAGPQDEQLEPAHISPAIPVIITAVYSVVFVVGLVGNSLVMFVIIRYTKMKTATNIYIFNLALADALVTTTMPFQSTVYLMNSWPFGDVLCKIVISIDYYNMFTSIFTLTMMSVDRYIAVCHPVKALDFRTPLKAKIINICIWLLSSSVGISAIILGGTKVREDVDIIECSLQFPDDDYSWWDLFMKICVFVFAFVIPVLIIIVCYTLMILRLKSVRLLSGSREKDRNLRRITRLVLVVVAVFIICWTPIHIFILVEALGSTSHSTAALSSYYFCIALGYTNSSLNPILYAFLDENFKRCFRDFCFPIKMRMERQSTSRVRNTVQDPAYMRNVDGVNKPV
T1 sequence (P97266 whole entry): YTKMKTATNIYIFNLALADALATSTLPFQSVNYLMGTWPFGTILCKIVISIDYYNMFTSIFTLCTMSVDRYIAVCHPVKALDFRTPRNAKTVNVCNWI

SMILES: CC[C@@H]1CN2CC[C@@]34OCCO[C@@]3(Nc3ccc(F)c(OC)c34)[C@@H]2C[C@@H]1/C(=C\OC)C(=O)OC
- Ki [1]: 7 nM
- Ki [2]: 7 nM

SMILES: CC[C@@H]1CN2CCc3c([nH]c4cccc(OC(C)=O)c34)[C@@H]2C[C@@H]1/C(=C\OC)C(=O)OC
- Efficacy [3]: 38%
- inhibition [3]: 2%

SMILES: CC[C@@H]1CN2CC[C@@]3(OC(C)=O)C(=Nc4cccc(OC)c43)[C@@H]2C[C@@H]1/C(=C\OC)C(=O)OC
- Efficacy [3]: 15%
- inhibition [3]: 21%

SMILES: CC[C@@H]1CN2CC[C@@]3(OC)C(=Nc4cccc(OC)c43)[C@@H]2C[C@@H]1/C(=C\OC)C(=O)OC
- Efficacy [3]: 70%
- inhibition [3]: 19%

SMILES: CC[C@@H]1CN2CC[C@]3(Nc4cccc(OC)c4C3=O)[C@@H]2C[C@@H]1/C(=C\OC)C(=O)OC
- Ki [4]: 3 nM
- Ki [1]: 0.01 nM
- Ki [2]: 79 nM

SMILES: CC[C@@H]1CN2CCc3c([nH]c4cccc(O)c34)[C@@H]2C[C@@H]1/C(=C\OC)C(=O)OC
- Efficacy [3]: 57%
- inhibition [3]: 41%

SMILES: CCO[C@]12CCN3C[C@@H](CC)[C@@H](/C(=C\OC)C(=O)OC)C[C@H]3C1=Nc1cccc(OC)c12
- Efficacy [3]: 26%
- inhibition [3]: 1%

SMILES: COc1ccc2c3c1O[C@H]1[C@@H](O)C=C[C@H]4[C@@H](C2)N(C)CC[C@@]341 [CODEINE]
- inhibition (INH) [5]: 70%

SMILES: CC[C@@H]1CN2CC[C@@]3(O)C(=Nc4cccc(OC)c43)[C@@H]2C[C@@H]1/C(=C\OC)C(=O)OC
- Ki [6]: 155 nM
- Ki [7]: 145 nM
- Ki [8]: 9.8 nM
- Ki [9]: 13 nM
- Activity [10]: Active
- Efficacy [3]: 99%
- Ki [11]: 195 nM
- Ratio Ki [12]: > 10

SMILES: CN1CC[C@]23c4c5ccc(O)c4O[C@H]2[C@@H](O)C=C[C@H]3[C@H]1C5 [MORPHINE]
- inhibition (INH) [5]: 70%
- Activity ([10]; route subcutaneous): 100%

SMILES: CC[C@@H]1CN2CCc3c([nH]c4cccc(OC)c34)[C@@H]2C[C@@H]1/C(=C\OC)C(=O)OC
- Ki [6]: 60 nM
- inhibition (INH) [5]: 18%
- Efficacy [3]: 95%
- inhibition [3]: 26%
- Ki [13]: > 1000 nM
- Activity [14]: 100%
- Ratio Ki [12]: 10
